Experiment [1] concerns A549. The experiment can be described thus: Test Example 2 in vitro cytotoxic activity (CTG), A549. Conditions: A549, 5 days; for IC50: Homo sapiens, 120 h. Type of experiment: cell-based. As to the method: (§1) In this experiment, the ATP content was determined using CTG to reflect the survival condition of the tumor cells.
(§2) Each of A549, SKBR3 and MDA-MB-468 was digested with pancreatin, resuspended in a culture medium and counted, and the cell density was adjusted to 2.2×10^4 cells/mL. 135 μL of cell suspension was added to each well in columns 2 to 11 of a 96-well plate, and column 12 was set as blank control. The cells were cultured in an incubator at 37° C. with 5% CO2 for 24 h.
(§3) a) Stock solution preparation: the drug was dissolved in DMSO to obtain a stock solution at a concentration of 5 mM.
(§4) b) Plate 1: stock solution in column 1 was initially subjected to a 40-fold dilution, and 3-fold gradient dilutions were performed sequentially in columns 2 to 11. Column 12 was filled with DMSO.
(§5) c) Plate 2: 196 μL of the corresponding culture medium was added to columns 2 to 11, and 4 μL of culture medium was pipetted from columns 3 to 12 of the plate 1 to columns 2 to 11 of the plate 2. The culture medium was mixed well.
(§6) 15 μL of culture medium was pipetted from the plate 2 and added to the cells. The cells were continuously cultured in an incubator at 37° C. with 5% C02 for 5 days.
(§7) 2.4. CTG assay: the plate was taken out and allowed to equilibrate to room temperature. 75 μL of CTG was added to each well and reacted at room temperature for 10 min away from the light. The luminescence value was read using a microplate reader and IC50 was calculated. 2.5. Data Results

Experiment [2] deals with SKBR3. The experiment in a line: Test Example 2 in vitro cytotoxic activity (CTG), SKBR3. It counts as cell-based. Conditions: SKBR3, 5 days; for IC50: Homo sapiens, SK-BR-3, 120 h. The procedure:
as §1, §2, §3, §4, §5, §6, §7

Experiment [3] deals with MDA-MB-468. The experiment can be described thus: Test Example 2 in vitro cytotoxic activity (CTG), MDA-MB-468. It counts as cell-based. Conditions: MDA-MB-468, 5 days; for IC50: Homo sapiens, 120 h. The procedure:
as §1, §2, §3, §4, §5, §6, §7

Experiment [4] deals with DOHH-2 cells highly expressing human CD79B protein. The experiment in a line: Endocytosis of anti-CD79B antibodies in DOHH-2 cells. It counts as cell-based. As to the method: In order to determine whether the CD79B antibodies of the present disclosure can be endocytosed into cells with human CD79B after binding to human CD79B, a cell endocytosis experiment was performed with DOHH-2 cells (DSMZ, ACC 47) highly expressing human CD79B protein to assess the endocytosis ability of the antibodies.
The cells were collected by low temperature centrifugation at 4° C. for 5 min at 1000 rpm during the experiment. The cells were resuspended in 10-15 mL of FACS buffer pre-cooled on ice. The FACS buffer was composed of phosphate buffered saline (PBS), pH 7.4, with 2% fetal bovine serum (FBS). Throughout the experiment, FACS buffer was pre-cooled on ice. The cells were counted and centrifuged, and added to a 96-well plate at 300,000 cells/well. After centrifugation, the supernatant was discarded, and 12.5 μg/mL Fc blocking solution (BD, Cat No.: 564220) was added at 100 μL/well. Blocking was performed at room temperature for 10 min. Then, 20 μg/mL test CD79B antibody was added to the corresponding wells, and the plate was incubated at 4° C. for 1 h away from the light. The plate was washed twice with a pre-cooled PBS buffer to remove unbound antibodies. A complete cell culture medium (RPMI 1640 medium with 10% fetal bovine serum) was added, and the plate was incubated at 37° C. with 5% CO2 for 0 h, 1 h, 2 h and 4 h. After centrifugation, the supernatant was discarded, 2% PFA buffer solution was added at 100 μL/well to resuspend the cells, and the plate was left to stand for 10 min. Then, the plate was washed 3 times with an FACS buffer, and 100 μL of secondary antibody solution (fluorescent labeled goat anti-human secondary antibody: diluted in a 1:250 ratio, 2 μg/mL, Biolegend, Cat #409304) was added. The plate was incubated at 4° C. for half an hour away from the light. A pre-cooled PBS buffer was added, and the supernatant was discarded after centrifugation at 4° C., which were repeated three times. The cells were resuspended in an FACS buffer at 200 μL/well and detected using a flow cytometer (BD FACS Calibur).

Experiment [5] has as its target T1, human CD79B (Homo sapiens, UniProt P40259).
T1 sequence (P40259 29-159 limits assumed): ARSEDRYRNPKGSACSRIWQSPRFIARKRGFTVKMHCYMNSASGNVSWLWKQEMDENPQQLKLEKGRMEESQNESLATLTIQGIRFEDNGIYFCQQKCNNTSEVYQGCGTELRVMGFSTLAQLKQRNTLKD
The experiment can be described thus: ELISA of anti-human CD79B hybridoma positive clones. Details: the extracellular region (ECD) of human CD79B comprises 159 amino acids (Met1-Asp159); made in house; host or cells: 293F cells. It counts as binding. The settings on record: hybridoma cell supernatant, read at 450 nm. As to the method: (§8) 3) ELISA screening A 96-well plate was coated with 1 μg/mL antigen at 50 μL/well and incubated in a refrigerator at 4° C. overnight. The next day, the coated antigen plate was washed once (washing solution: 1×PBST). After washing, the plate was blocked with 1% BSA blocking solution prepared in 1×PBST at 37° C. for 1 h. After washing the plate 3 times with 1×PBST, 50 μL of the test cell supernatant was added, and the plate was incubated in an incubator at 37° C. for 1 h. After washing the plate 3 times with 1×PBST, 100 μL of goat anti-mouse secondary antibody diluted in a 1:5000 ratio was added, and the plate was incubated in an incubator at 37° C. for 0.5 h. After washing the plate, TMB color development solutions A and B were mixed in a 1:1 ratio for color development. 15 min later, the color development reaction was stopped with 1 N hydrochloric acid. […] value was read at 450 nm on a Spectra Max M5 microplate reader.
(§9) 5) Identification of hybridoma positive clones A plurality of specific antibodies against human CD79B antigen were obtained; and 17 strains of hybridomas having strongest binding force to ELISA and FACS in assays were taken for production and purification of antibodies. Specific antibodies against monkey CD79B antigen were also obtained; and 4 strains of hybridomas having strongest binding force to ELISA and FACS in assays were taken for production and purification of antibodies. Assay results of anti-monkey CD79B hybridoma positive clone cells by FACS are shown in Table 4. mIgG was used as negative control in the both assays.

Experiment [6] addresses T1, human CD79B. The experiment in a line: ELISA of purified anti-human CD79B mouse monoclonal antibodies. Also noted: the extracellular region (ECD) of human CD79B comprises 159 amino acids (Met1-Asp159); made in house; host or cells: 293F cells. The settings on record: purified antibodies diluted 1:10 from 100 nM; FIG. 8. It counts as binding. The procedure: as §8, with “2) Assay on anti-human CD79B mouse monoclonal antibodies by” for “3)”, “ELISA” for “ELISA screening”, “antibody diluted in a 1:10 ratio from 100 nM” for “the test cell supernatant”

Experiment [7] concerns the target T2, CD79B protein on the surface of DoHH2 cells (Homo sapiens, UniProt P40259).
T2 construct: endogenous in cells; host or cells: DoHH2 (DOHH-2) cells
T2 sequence (P40259 29-229): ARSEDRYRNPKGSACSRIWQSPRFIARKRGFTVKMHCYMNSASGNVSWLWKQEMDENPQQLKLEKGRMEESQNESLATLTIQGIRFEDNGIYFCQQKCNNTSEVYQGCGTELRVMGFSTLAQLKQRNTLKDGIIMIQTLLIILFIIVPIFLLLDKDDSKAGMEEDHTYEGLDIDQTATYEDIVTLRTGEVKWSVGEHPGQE
T2 sequence (P11912 33-226 partner): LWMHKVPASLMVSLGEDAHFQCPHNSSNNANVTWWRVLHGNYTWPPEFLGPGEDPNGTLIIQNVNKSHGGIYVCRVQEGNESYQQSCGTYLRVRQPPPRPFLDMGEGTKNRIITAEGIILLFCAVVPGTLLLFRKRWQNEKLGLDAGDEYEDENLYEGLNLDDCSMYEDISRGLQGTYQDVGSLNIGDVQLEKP
The experiment can be described thus: FACS of purified anti-human CD79B mouse monoclonal antibodies on DoHH2 cells. Type of experiment: binding. As to the method:
3) Assay on anti-human CD79B mouse monoclonal antibodies by FACS The cell suspension of DoHH2 cells was centrifuged, resuspended in PBS containing 0.1% BSA, and counted. 100 μL of antibody diluted in a 1:10 ratio from 100 nM was added, and the cells were incubated at room temperature for 1 h and washed three times. Then Anti-Mouse IgG (Fc specific)-FITC secondary antibody was added, and the cells were incubated at room temperature for 30 min away from the light, washed three times, gently resuspended in PBS containing 0.1% BSA, and loaded on the machine for assay. […] The specific data are shown in FIGS. 9A and 9B, in which hIgG1 is a negative control antibody and SN8 is a positive control antibody. SN8 is an antibody (reference sequence source: US20170362318A) used in the antibody-drug conjugate polatuzumab vedotin developed by Roche pharmaceutical. Polatuzumab vedotin has been approved by the FDA for marketing.

Experiment [8] deals with T2, CD79B protein on the surface of DoHH2 cells. The experiment in a line: FACS of anti-human CD79B hybridoma positive clones. Type of experiment: binding. As to the method:
4) FACS screening The suspension of DoHH2 cells was centrifuged, resuspended in PBS containing 0.1% BSA, and counted. The test serum was added, and the cells were incubated at room temperature for 60 min and washed. Then Anti-Mouse IgG (Fc specific)-FITC secondary antibody was added, and the cells were incubated at room temperature for 30 min away from the light, washed three times, gently resuspended in PBS containing 0.1% BSA, and loaded on the machine for assay.
as §9

Consider `C=C1C[C@@H]2CC[C@@]34C[C@H]5O[C@H]6[C@@H](O3)[C@H]3O[C@H](CC[C@@H]3O[C@H]6[C@H]5O4)CC(=O)C[C@@H]3[C@@H](OC)[C@@H](C[C@@H](CNC)OC)O[C@H]3C[C@H]3O[C@@H](CC[C@@H]1O2)C[C@@H](C)C3=C` [D-2], for which the entries for the “Maximum inhibition (%)” value in experiment [1], in experiment [2] and in experiment [3] were 62.09%, 96.85% and 89.43%, respectively. For the same molecule, the results for the IC50 in experiment [1], in experiment [2] and in experiment [3] were 3.08 nM, 1.09 nM and 1.88 nM, respectively.

In the case of `C=C1C[C@@H]2CC[C@@]34C[C@H]5O[C@H]6[C@@H](O3)[C@H]3O[C@H](CC[C@@H]3O[C@H]6[C@H]5O4)CC(=O)C[C@@H]3[C@@H](OC)[C@@H](C[C@H](O)CO)O[C@H]3C[C@H]3O[C@@H](CC[C@@H]1O2)C[C@@H](C)C3=C` [E1-30], the figures for the “Maximum inhibition (%)” value in experiment [1], in experiment [2] and in experiment [3] were 62.46%, 96.15% and 90.49%, respectively. Further, the IC50 (as a rule, the concentration at which inhibition is half-maximal) is 0.781 nM in experiment [1], 0.166 nM in experiment [2] and 0.36 nM in experiment [3].

`C=C1C[C@@H]2CC[C@@]34C[C@H]5O[C@H]6[C@@H](O3)[C@H]3O[C@H](CC[C@@H]3O[C@H]6[C@H]5O4)CC(=O)C[C@@H]3[C@@H](OC)[C@@H](C[C@H](O)CNC)O[C@H]3C[C@H]3O[C@@H](CC[C@@H]1O2)C[C@@H](C)C3=C` [E-305]: the “Maximum inhibition (%)” value stood at 61.27% in experiment [1], 96.42% in experiment [2] and 88.53% in experiment [3]. The figures for the IC50 in experiment [1], in experiment [2] and in experiment [3] were 2.1 nM, 0.571 nM and 1.17 nM, respectively.

SN8 [reference compound]: in experiment [4] (20 μg/mL antibody, incubation at 4° C.), the “endocytosis by DOHH-2 cells at 4° C.” value is listed as “cannot be endocytosed by DOHH-2 cells”. In addition, the “endocytosis by DOHH-2 cells at 37° C. after 1 h” value in experiment [4] (20 μg/mL antibody, incubation at 37° C., 1 h) is on record as “most of the antibodies are already endocytosed by DOHH-2 cells”. Also, the “endocytosis, overall judgement” value in experiment [4] (DOHH-2 cells) is given as “good endocytosis”. Besides, in experiment [4] (incubation at 37° C.), the “time at which antibody endocytosis reaches a maximum” value is 4 h.

B1: mAb015: anti-human CD79B mouse monoclonal antibody, clone 83B2G2; VH SEQ ID NO: 3, VL SEQ ID NO: 4 (antibody, listed as Mus musculus, V domains shown)
VH: QVQLQQSGAELARPGASVKLSCKASGSSFTSYGINWVKQRTGQGLEWIGEIFPRSGNTYYNEKFEGKATLTADKSSSTAYMELRSLTSEDSAVYFCAKGDLGDFDYWGQGTTLTVSS
VL: DFLMTQTPLSLPVRLGDQASISCRSSQSIVHSDGNTYFEWYLQKPGQSPKLLIYKVSNRFSGVPDRFSGSGSGTDFTLKISRVEAEDLGVYYCFQGSHVPWTFGGGTKLEIK
Take B1: the “Results (OD450)” value in experiment [5] amounted to 3.41. For the same molecule, in experiment [6], the ELISA binding force result is recorded as “strongest ELISA binding force”. In experiment [7] (antibodies diluted 1:10 from 100 nM, FIGS. 9A, 9B), the FACS binding force entry is “strongest FACS binding force”. For the same molecule, in experiment [7] (positive control antibody SN8), the “FACS binding force compared with SN8” value was “superior binding force to SN8”. For the same molecule, the Mean fluorescence value in experiment [8] was found to be 10036.
